Read-outs that look alike come from different tables or passages of the source.
Tests used:
[1] = molecular target: T1, IAV RdRp from A/PR/8/34/H1N1 strain (Influenza A virus, UniProt P03428+P03431); type: biochemical, influenza virus A/PR/8/34/H1N1
[2] = molecular target: T1, IAV RdRp from A/PR/8/34/H1N1 strain; settings: inhibiting the transcriptional activity of viral polymerase; ref Pagadala [2019]; cited from earlier work

T1 sequence (P03428 whole entry, looked up): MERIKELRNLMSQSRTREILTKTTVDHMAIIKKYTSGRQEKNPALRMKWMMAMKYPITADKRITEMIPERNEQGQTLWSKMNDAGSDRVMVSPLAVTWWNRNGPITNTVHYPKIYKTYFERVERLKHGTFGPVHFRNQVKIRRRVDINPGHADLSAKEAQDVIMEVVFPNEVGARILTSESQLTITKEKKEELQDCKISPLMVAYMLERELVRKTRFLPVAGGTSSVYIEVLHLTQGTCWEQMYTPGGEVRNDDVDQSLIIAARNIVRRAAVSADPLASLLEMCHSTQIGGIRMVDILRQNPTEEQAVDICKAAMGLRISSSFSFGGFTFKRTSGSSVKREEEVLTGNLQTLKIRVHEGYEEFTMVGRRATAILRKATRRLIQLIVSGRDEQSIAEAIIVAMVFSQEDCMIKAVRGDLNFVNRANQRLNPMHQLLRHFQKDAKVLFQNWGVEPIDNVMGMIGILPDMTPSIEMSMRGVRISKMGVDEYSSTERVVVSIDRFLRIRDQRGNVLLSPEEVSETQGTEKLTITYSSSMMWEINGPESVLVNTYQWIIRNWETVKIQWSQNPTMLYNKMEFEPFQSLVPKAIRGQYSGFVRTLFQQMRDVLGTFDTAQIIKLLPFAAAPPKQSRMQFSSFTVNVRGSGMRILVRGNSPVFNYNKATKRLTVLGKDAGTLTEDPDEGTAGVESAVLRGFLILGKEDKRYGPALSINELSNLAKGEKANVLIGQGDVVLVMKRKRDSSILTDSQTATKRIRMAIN
T1 sequence (P03431 whole entry, looked up): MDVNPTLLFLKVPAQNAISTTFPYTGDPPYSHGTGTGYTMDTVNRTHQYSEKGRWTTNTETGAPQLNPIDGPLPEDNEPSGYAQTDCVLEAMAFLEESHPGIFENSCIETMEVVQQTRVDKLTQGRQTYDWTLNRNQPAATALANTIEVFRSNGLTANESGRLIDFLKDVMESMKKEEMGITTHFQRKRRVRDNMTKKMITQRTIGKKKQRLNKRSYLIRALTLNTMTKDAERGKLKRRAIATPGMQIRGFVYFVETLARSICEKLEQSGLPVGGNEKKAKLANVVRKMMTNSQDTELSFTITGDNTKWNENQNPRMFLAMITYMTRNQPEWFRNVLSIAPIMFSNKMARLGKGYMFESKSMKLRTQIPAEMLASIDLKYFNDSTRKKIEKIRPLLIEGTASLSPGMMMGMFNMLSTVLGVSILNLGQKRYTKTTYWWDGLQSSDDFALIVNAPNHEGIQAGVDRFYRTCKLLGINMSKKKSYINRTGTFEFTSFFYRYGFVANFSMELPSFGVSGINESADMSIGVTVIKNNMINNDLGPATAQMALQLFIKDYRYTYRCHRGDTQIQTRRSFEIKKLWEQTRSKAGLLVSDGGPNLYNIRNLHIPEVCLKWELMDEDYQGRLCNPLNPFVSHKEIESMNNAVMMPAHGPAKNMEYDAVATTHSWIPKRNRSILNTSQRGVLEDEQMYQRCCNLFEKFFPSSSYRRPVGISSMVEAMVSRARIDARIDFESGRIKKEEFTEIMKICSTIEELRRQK

Compound	IC25 [1] [nM]	IC50 [1] [nM]	IC50 [2] [nM]
5′-Dimethoxytrityl-2′-tosyl-N2-isobutyryl-guanosine [Compound 7]	250	680	
Cc1cn([C@H]2C[C@H](N=[N+]=[N-])[C@@H](CO[P@](=O)(O)O[P@](=O)(O)OP(=O)(O)O)O2)c(=O)[nH]c1=O [3′-azido-3′-deoxy-thymidine-5′-triphosphate]			1120
Nc1nc2c(ncn2[C@@H]2O[C@H](COP(=O)(O)OP(=O)(O)OP(=O)(O)O)[C@@H](O)[C@H]2F)c(=O)[nH]1 [Compound 12, 2′-deoxy-2′-fluoroguanosine 5′-triphosphate]			1120

— article PMC7246003 (Medicinal Chemistry Research, 2020)
